Measurements from patent US20230151003A1, “COMPOUNDS AND METHODS OF USE” (Exelixis, Inc., priority 2020, published 2023).

Assays:
[1] = target: T1, Human AXL (Homo sapiens, UniProt P30530); assay: Human AXL kinase assay (HTRF KinEase); type: biochemical; details: Table 2 Biological Activities, ATP at Km (1.0 μM)
T1 construct: Human AXL (residues 464-885; CarnaBio, 1 ng/ well); purchased CarnaBio
T1 sequence (P30530 464-885 isoform P30530-2): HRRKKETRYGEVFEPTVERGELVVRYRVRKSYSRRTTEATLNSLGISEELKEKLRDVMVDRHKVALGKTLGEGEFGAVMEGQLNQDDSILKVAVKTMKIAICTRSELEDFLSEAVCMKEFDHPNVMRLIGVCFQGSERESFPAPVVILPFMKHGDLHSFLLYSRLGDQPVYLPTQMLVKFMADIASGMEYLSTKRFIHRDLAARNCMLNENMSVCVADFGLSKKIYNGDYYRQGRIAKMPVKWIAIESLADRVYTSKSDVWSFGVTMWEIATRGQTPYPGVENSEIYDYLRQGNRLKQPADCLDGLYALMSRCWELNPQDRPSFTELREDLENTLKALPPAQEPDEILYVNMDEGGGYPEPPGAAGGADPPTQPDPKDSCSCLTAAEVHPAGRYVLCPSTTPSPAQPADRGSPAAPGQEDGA
Description: (§1) Kinase activity and compound inhibition were investigated using the HTRF® KinEase assay (Cisbio Cat #62TKOPEB) per manufacturer's instructions. In short, compounds were delivered in 300 nL volumes at 10 different concentrations in DMSO (3% final) to empty 384-well assay plates (Corning cat #3824). A mixture of enzyme, 1 μM biotynlated peptide substrate, and buffer in 10 μL volume was added. The assay was started upon the addition of ATP (at Km). The 10 μL reaction was incubated at room temperature. The reaction was stopped upon the addition of detection buffer containing streptavidin-XL665 (5 μL) and TK antibody-Eu3+ (5 μL). After a 60 min incubation at room temperature, the fluorescence at 665 nm and 620 nm was read on an Envision microplate reader (Perkin Elmer). Kinase activity normalized to DMSO (100% activity) and reference compound at 1 μM and (0% activity) was calculated using the fluorescence ratio […]. IC50 values were calculated by nonlinear regression analysis using a 4-parameter logistic curve fit in ActivityBase XE (IDBS).
Human AXL (residues 464-885; CarnaBio, 1 ng/ well) was incubated with enzymatic buffer (Cisbio) supplemented with 5 mM MgCl2, 1 mM DTT, and Supplemental Enzymatic Buffer (SEB; Cisbio). The mixture was added to the pre-plated compounds. The reaction was initiated upon addition of ATP at Km (1.0 μM). The reaction was incubated at room temperature for 50 min and stopped upon the addition of SA-XL665 and TK-antibody both diluted in EDTA-containing kinase detection buffer (Cisbio). The kinase activity was calculated as stated above and the IC50 values were reported.

[2] = target: Met (Homo sapiens, UniProt P08581); assay: Human MET kinase assay (HTRF KinEase); type: biochemical; parameters: Human MET (residues 956-1390; CarnaBio, 0.1 ng/ well); purchased CarnaBio; details: Table 2 Biological Activities, ATP at Km (3.0 μM), read-out: c-Met IC50
Met, sequence (P08581 956-1390): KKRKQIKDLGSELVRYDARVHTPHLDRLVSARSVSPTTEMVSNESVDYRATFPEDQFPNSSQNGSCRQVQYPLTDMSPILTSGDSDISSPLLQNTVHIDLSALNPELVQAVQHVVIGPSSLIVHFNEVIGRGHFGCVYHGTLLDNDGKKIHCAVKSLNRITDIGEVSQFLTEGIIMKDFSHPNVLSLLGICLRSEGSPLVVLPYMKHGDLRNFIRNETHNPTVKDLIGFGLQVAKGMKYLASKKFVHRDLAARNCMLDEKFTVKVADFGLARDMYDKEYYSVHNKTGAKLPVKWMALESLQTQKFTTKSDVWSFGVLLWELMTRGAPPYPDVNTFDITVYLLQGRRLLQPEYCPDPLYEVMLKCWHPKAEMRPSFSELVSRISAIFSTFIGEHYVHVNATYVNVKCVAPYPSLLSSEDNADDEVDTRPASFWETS
Description: as §1
Human MET (residues 956-1390; CarnaBio, 0.1 ng/ well) was incubated with enzymatic buffer (Cisbio) supplemented with 5 mM MgCl2, 1 mM DTT and 1 mM MnCl2. The mixture was added to the pre-plated compounds. The reaction was initiated upon addition of ATP at Km (3.0 μM). The reaction was incubated at room temperature for 40 min and stopped upon the addition of SA-XL665 and TK-antibody both diluted in EDTA-containing kinase detection buffer (Cisbio). The kinase activity was calculated as stated above and the IC50 values were reported.

Structure (SMILES)	IC50 [1]	IC50 [2]
COc1cc2nccc(Oc3ccc(NC(=O)c4c(C)nc(C)c(-c5ccc(F)cn5)c4O)cc3F)c2nc1OC [Compound 218, N-[4-[(6,7-Dimethoxy-1,5-naphthyridin-4-yl)oxy]-3-fluorophenyl]-5-(5-fluoropyridin-2-yl)-4-hydroxy-2,6-dimethylpyridine-3-carboxamide]	≤ 100 nM	≤ 100 nM
COc1cc2nccc(Oc3ccc(NC(=O)c4ccc(C)n(-c5ccncc5F)c4=O)cc3F)c2nc1OC [Compound 220, N-[4-[(6,7-Dimethoxy-1,5-naphthyridin-4-yl)oxy]-3-fluorophenyl]-1-(3-fluoropyridin-4-yl)-6-methyl-2-oxopyridine-3-carboxamide]	≤ 100 nM	≤ 100 nM
COc1cc2nccc(Oc3ccc(NC(=O)c4c(C)nc(C)c(-c5ccc(F)cn5)c4O)cc3)c2nc1OC [Compound 216, N-[4-[(6,7-Dimethoxy-1,5-naphthyridin-4-yl)oxy]phenyl]-5-(5-fluoropyridin-2-yl)-4-hydroxy-2,6-dimethylpyridine-3-carboxamide]	≤ 100 nM	≤ 100 nM
COCc1nc(C)c(-c2ccc(F)cn2)c(O)c1C(=O)Nc1ccc(Oc2ccnc3cc(OC)c(OC)nc23)c(F)c1 [Compound 214, N-[4-[(6,7-Dimethoxy-1,5-naphthyridin-4-yl)oxy]-3-fluorophenyl]-5-(5-fluoropyridin-2-yl)-4-hydroxy-2-(methoxymethyl)-6-methylpyridine-3-carboxamid]	≤ 100 nM	≤ 100 nM
COc1cc2nccc(Oc3ccc(NC(=O)c4ccc(C)n(-c5ccncc5)c4=O)cc3F)c2nc1OC [Compound 221, N-[4-[(6,7-Dimethoxy-1,5-naphthyridin-4-yl)oxy]-3-fluorophenyl]-6-methyl-2-oxo-1-pyridin-4-ylpyridine-3-carboxamid]	≤ 100 nM	≤ 100 nM
COc1cnc2c(Oc3ccc(NC(=O)c4c(C)nc(C)c(-c5ccc(F)cn5)c4O)cc3F)ccnc2c1 [Compound 217, N-[3-Fluoro-4-[(7-methoxy-1,5-naphthyridin-4-yl)oxy]phenyl]-5-(5-fluoropyridin-2-yl)-4-hydroxy-2,6-dimethylpyridine-3-carboxamide]	≤ 100 nM	≤ 100 nM
